Results taken from patent US8618169B2, “Derivatives of N-phenylanthranilic acid and 2-benzimidazolone as potassium channel and/or neuron activity modulators” (Ramot at Tel-Aviv University Ltd., priority 2002, dated 2013).
Values joined by “and” are separate entries in the source; they are usually repeats but may differ in a detail not shown here. Equal entries are not always repeated.

Experiments:
[1] = test system: electroshock-induced seizures; test: Maximal electroshock seizure (MES) test in ICR mice; format: in vivo
Experimental: All animals were treated in accordance with the Guide for the Care and Use of Laboratory Animals as adopted and promulgated by the U.S. National Institutes of Health. The procedures followed for experimentation and maintenance of the animals were approved by the animal research ethics committee of Tel Aviv University and in accordance with the Guide for the Care and Use of Laboratory Animals (1996. National Academy of Sciences, Washington D.C). […] electroshock were induced in adult mice by means of two transcorneal electrodes delivering an alternative current of 50 mA at 60 Hz for 0.2 sec using rodent shocker (Hugo Sachs Electronik, type 221). […] The tested compounds were dissolved in 0.9% saline were administered intraperitoneally either 30 minutes or 2 hours before the electroshock was performed. Animals failing to show tonic hind limb extension were scored as protected and were expressed in percentage.
Five groups of 10 ICR mice each received intraperitoneally saline (control) or meclofenamic acid (Compound 1) at 25 mg/kg, 50 mg/kg, 100 mg/kg and 150 mg/kg and were subjected 30 minutes later to an electric shock (50 mA, 0.2 second duration, 60 Hz).
In view of the strong depressing activity of Compound 6 on cortical neurons, the anticonvulsant activity in mice subjected to seizures produced by electroshock was examined, using the MES test described above. Compound 6 dissolved in saline was injected intraperitoneally (in a volume of 10 ml/kg) at doses ranging from 6 mg/kg to 20 mg/kg to ICR adult mice and its anticonvulsant activity was compared with saline. Twenty minutes after drug administration, seizures were produced by electroshock (50 mA, 0.2 second duration, 60 Hz).

rat cortical neurons = test: Evoked and spontaneous action potential activity of cultured rat cortical neurons, current-clamp; format: cell-based
KCNQ2/3 channels = target: T1, KCNQ2/3 channels (Homo sapiens, UniProt O43525+O43526); test: KCNQ2/3 current in transfected CHO cells, whole-cell patch-clamp; format: cell-based
T1 construct: expressed in transfected cells; host or cells: CHO cells

COX (Cyclooxygenase) = test: COX activity assay in C-26 cells (PGE2 radioimmunoassay); format: cell-based; details: for IC50: C-26 cells
Experimental: C-26 cells were plated on 24-well plates using RPMI medium. Different concentrations of the tested compound were added thereto and the cells were incubated for 30 minutes at 37° C. 30 μM exogenic arachidonic acid was then added and incubation was continued for 20 minutes (37° C.), so as to allow the cells to synthesize PGE2. Indomethacin was added thereafter (10 μM), to stop and completely block the activity. Then, the upper solution was removed into clean 24-wells. To the remained cells 100 μl NaOH (1M) were added to induce cytolysis, and the cells were left for later protein measurement. The solution removed to the new 24-well was used for a radioimmunoassay. The COX activity was estimated by calculating the ng PGE2/mg protein parameter.

M-current = target: T2, M-current (Rattus norvegicus, UniProt O88943+O88944); test: Native M-current of cultured rat cortical neurons, voltage-clamp; format: cell-based; details: cortical neurons, from −50 mV to −70 mV
T2 construct: the native M-current from pyramidal-like neurons was recorded; endogenous in cells; host or cells: primary cortical neurons from Sprague Dawley rat embryos (E18)

small DRG neurons = test: Spiking activity of DRG neurons, current-clamp; format: cell-based, mouse; details: 15 μM; 75 pA, 400 ms
Experimental: Dorsal root ganglion (DRG) neurons were dissected from 2-4 days-old ICR mice that were decapitated. DRGs were placed in Hank's balanced saline solution (HBSS) and were prepared by enzymatic dissociation. Briefly, cells were incubated for 30 minutes in 5 mg/ml dispase (Sigma), 2 mg/ml collagenase type 1A (Sigma) and 0.1 mg/ml DNase (Invitrogen/Gibco) in calcium and magnesium-free HBSS, and the ganglia were thereafter mechanically triturated with a firepolished glass Pasteur pipette. The ganglia were then centrifuged for 5 minutes at 80×g and resuspended in DMEM supplemented with 2 mM L-glutamine, 16.5 mM NaCO3, 6 g/l glucose, 5 ml penicillin/streptomycin and 10% fetal calf serum. For electrophysiological recording, dissociated neurons were plated on 13 mm glass coverslips previously coated with poly-D-lysine (1 mg/ml) and laminin (10 μg/ml) and were used after 2-6 days in culture.
For current measurements in CHO cells, recordings were performed 40 hours following transfection, using the whole-cell configuration of the patch-clamp technique [Hamill et al., Nature 294: 462-464 (1981)]. Signals were amplified using an Axopatch 200B patch-clamp amplifier (Axon Instruments, Foster City, Calif., USA), sampled at 2 kHz and filtered at 800 Hz via a 4-pole Bessel low pass filter. Data were acquired using pClamp 8.1 software (Axon Instruments, Foster City, Calif., USA) and an Elonex Pentium III computer in conjunction with a DigiData 1322A interface (Axon Instruments, Foster City, Calif., USA). The patch pipettes were pulled from borosilicate glass (Warner Instrument. Corp., Hamden, Conn., USA) with a resistance of 2-5 MΩ and were filled with (in mM): 130 KCl, 1 MgCl2, 5 K2ATP, 5 EGTA, 10 HEPES, adjusted with KOH at pH 7.4 (290 mOsm). The external solution contained (in [mM]): 140 NaCl, 4 KCl, 1.8 CaCl2, 1.2 MgCl2, 11 glucose, 5.5 HEPES, adjusted with NaOH at pH 7.4 (310 mOsm). Series resistances (3-13 MΩ) were compensated (75-90%) and periodically monitored. […]

KCNQ2/Q3 = KCNQ2/Q3 (Homo sapiens, UniProt O43525+O43526); test: Opener potency on KCNQ2/Q3 by leftward shift of half-activation potential (ΔV50) versus concentration, Hill fit; format: cell-based; design: expressed in transfected cells

## O=C(O)Cc1ccccc1Nc1c(Cl)cccc1Cl [Compound 2, diclofenac]
[1]; 25 mg/kg i.p., 30 minutes before electroshock
  % Protection: 10 (10) %
[1]; 50 mg/kg i.p., 30 minutes before electroshock, listed as Diclofenac
  % Protection: 64 (11) %
[1]; 50 mg/kg i.p., 30 minutes before electroshock, listed as diclofenac
  % Protection: 64%
[1]; 50 mg/kg i.p., 2 hours before electroshock
  % Protection: 50 (4) %
[1]; 100 mg/kg i.p., 30 minutes before electroshock
  % Protection: 92 (12) %
[1]; 100 mg/kg i.p., 2 hours before electroshock
  % Protection: 83 (6) %
[1]; 200 mg/kg i.p., 30 minutes before electroshock
  % Protection: 100 (15) %
[1]; 200 mg/kg i.p., 2 hours before electroshock
  % Protection: 100 (6) %
[1]; Mus musculus, intraperitoneal, 30 minutes or 2 hours before electroshock, 25-200 mg/kg, read-out: ED50 for suppression of tonic extension induced by MES
  ED50: 43 mg/kg
Rat cortical neurons; 25 μM
  effect on evoked action potentials: no spike could be evoked
  effect on spontaneous spiking activity: quickly and reversibly depressed

## Cc1c(Cl)cccc1Nc1ccccc1C(=O)NCCOCCO [Compound 3]
KCNQ2/3 channels; 25 μM, train protocol, stepped to −50 mV
  increase of the current amplitude: up to 299±47%
KCNQ2/3 channels; CHO cells
  opener action on recombinant KCNQ2/3 channels (in words): potent KCNQ2/3 potassium channel opening properties
COX (Cyclooxygenase)
  IC50: 0.113 µM and 0.114 µM

## O=C(NCCOCCO)c1ccccc1Nc1cccc(C(F)(F)F)c1 [Compound 4]
Rat cortical neurons
  effect on evoked and spontaneous cortical neuron activity: depress
Rat cortical neurons; 20 μM
  effect on spontaneous spiking activity: markedly depressed
KCNQ2/3 channels; 50 μM, stepped from −85 mV to −40 mV
  increase of the current amplitude: > 1.5 fold
KCNQ2/3 channels; 50 μM, stepped from −85 mV to −50 mV
  increase of the current amplitude: more than 4 fold
KCNQ2/3 channels; CHO cells
  opener action on recombinant KCNQ2/3 channels (in words): potent KCNQ2/3 channel opener
M-current
  negative shift in the threshold of M-current activation: approximately 20 mV
COX (Cyclooxygenase)
  IC50: > 30 µM

## Cc1cccc(Nc2ccccc2C(=O)NCCOCCO)c1C [Compound 5]
Rat cortical neurons
  effect on evoked and spontaneous cortical neuron activity: depress
Rat cortical neurons; 25 μM
  effect on evoked action potentials: reversibly inhibited
KCNQ2/3 channels; 15 μM, at −40 and −50 mV
  effect on current amplitude: enhances the current amplitude
KCNQ2/3 channels; 25 μM, CHO cells
  leftward shift in the voltage-dependence of KCNQ2/3 activation: ~8 mV
KCNQ2/3 channels; 25 μM, CHO cells, control −30.9±4.1 mV
  V50 of KCNQ2/3 activation with compound: −38.3±1.9 mV
KCNQ2/3 channels; CHO cells
  effect on deactivation kinetics of KCNQ2/3 channels: slowed down
M-current
  negative shift in the threshold of M-current activation: approximately 20 mV
COX (Cyclooxygenase)
  COX inhibition activity (in words): do not exhibit COX inhibition activity
  IC50: 10.3 µM

## O=C(Cc1ccccc1Nc1c(Cl)cccc1Cl)OCCOCCO [Compound 7]
Rat cortical neurons
  effect on evoked and spontaneous cortical neuron activity: depress
Rat cortical neurons; 20 μM
  effect on evoked and spontaneous spiking activity of cortical neurons: very potent inhibitory activity
KCNQ2/3 channels; CHO cells
  opener action on recombinant KCNQ2/3 channels (in words): potent KCNQ2/3 channel opener
M-current
  negative shift in the threshold of M-current activation: approximately 20 mV
COX (Cyclooxygenase)
  IC50: 0.011 µM and 0.0117 µM

## COCCOCCOC(=O)Cc1ccccc1Nc1c(Cl)cccc1Cl [Compound 8]
Rat cortical neurons
  effect on evoked and spontaneous cortical neuron activity: depress
Rat cortical neurons; low concentrations (10 μM evoked, 5 μM spontaneous)
  effect on evoked and spontaneous spiking activity of cortical neurons: potent inhibitory activity
KCNQ2/3 channels; CHO cells
  opener action on recombinant KCNQ2/3 channels (in words): only a weak opener action

## CN(CCO)C(=O)Cc1ccccc1Nc1c(Cl)cccc1Cl [Compound 9]
Rat cortical neurons; 20 μM
  effect on evoked and spontaneous spiking activity of cortical neurons: inhibitory activity
KCNQ2/3 channels; CHO cells
  opener action on recombinant KCNQ2/3 channels (in words): only a weak opener action

## CCn1c(=O)[nH]c2ccccc21 [Compound 10, 1-ethyl benzimidazolone]
KCNQ2/3 channels; 100 μM, train protocol, cells stepped to −30 mV
  increase of the current amplitude: up to 57%

## O=C1NC(=O)C(c2ccccc2)(c2ccccc2)N1 [phenyloin]
[1]; 20 mg/kg intraperitoneal, 30 minutes before electroshock
  protection from hind limb extension: fully prevented hind limb extension

## CCOC(=O)Nc1ccc(NCc2ccc(F)cc2)cc1N [retigabine, N-(2-amino-4-(4-fluorobenzylamino)-phenyl)carbamic acid ethyl ester]
Small DRG neurons
  effect on trains of evoked spikes: Very similar results
KCNQ2/Q3
  EC50: 2 ± 1.3 µM
KCNQ2/Q3; Hill fit, compound alone
  Hill coefficient ηH: 1.20±0.30
KCNQ2/Q3; increasing concentrations co-exposed with 25 μM meclofenamic acid
  maximum ΔV50: −32±4 mV

## CCCC(CCC)C(=O)[O-].[Na+] [sodium valproate]
[1]; 500 mg/kg intraperitoneal, 30 minutes before electroshock
  protection from hind limb extension: fully prevented hind limb extension
